Assay results: patent publication US20250066722A1, “METHODS FOR PRODUCTION OF FUNCTIONAL NEURONS” (AXENT BIOSCIENCES INC., priority 2021, published 2025)

Tested on: Human induced pluripotent stem cells (hPSCs)
Experiment: 3D dopaminergic neuron differentiation of hPSCs with tyrosine hydroxylase immunocytochemistry
Format: cell-based
Settings: for expression of tyrosine hydroxylase in differentiating aggregates: by day 20, immunocytochemistry, FGF8, TGF-β, BDNF, GDNF removed and replaced with BT-13 or Q525, FIGS. 3 and 5; for production of hPSC-derived neurons expressing the functional biomarker Tyrosine Hydroxylase: replacement of GDNF, BDNF and TGF-β in maturation media from Day 11, BT-13 5 μM or Q525 5 nM, with DAPT 10 uM, 3D AXgel
Method: Human Pluripotent Stem Cell Culture. Human […] (hPSCs) (ThermoFisher A 18945) were subcultured in monolayer format on a layer of 1% Matrigel and maintained in Essential 8 medium during expansion. At 80% confluency, H9s were passaged using Versene solution and replated at a 1:8 split.
3D hPSC Culture Seeding. hPSCs were dissociated into single cells using Accutase solution and resuspended in Essential 8 (E8) medium containing 10 μM Y-27632 (Rock Inhibitor, RI). hPSCs were counted and resuspended at defined densities in 11% AXgel on ice. Cells suspended in AXgel were dispensed into a multi-well tissue culture plate and heated to 37° C. for 15 minutes and afterward pre-warmed E8 medium containing 10 μM RI was added to each well. 3D cell suspensions remained in E8 with RI for 2 days (from Day −2 to Day 0).
3D Dopaminergic Neuron Differentiation. Starting Day 0, hPSCs in AXgel were transitioned to differentiation media to induce neural lineage commitment and subsequently specification into midbrain dopaminergic neurons. Starting Day 11, neural precursors were transitioned to maturation media containing GDNF agonist BT-13 (5 μM) or Q525 (5 nM) in place of proteins GDNF, BDNF, and TGF-β. Media formulations were according to Table 2: […]
Immunocytochemistry. At the endpoint of the experiment, cell aggregates were harvested from AXgel by replacing warm media with chilled media and plated on 8-chamber culture slides coated with 10 μg/mL laminin and cultured overnight in the incubator to allow aggregates to adhere to the surface. Aggregates attached to the culture slide were then fixed using 4% paraformaldehyde (PFA) for 15 minutes. Aggregates were washed twice in PBS for 5 minutes each and incubated in 0.25% Triton-X+5% donkey serum in PBS for 10 minutes to permeabilize cells. After permeabilization, aggregates were washed 5 times in 5% donkey serum for 5 minutes each and incubated with primary antibodies of interest diluted in PBS+donkey serum (dilution details in Table 3), and stored overnight at 4° C. After primary staining, aggregates were washed twice in PBS for 5 minutes each and incubated in solution containing the corresponding secondary antibodies (dilution details in Table 3), and incubated at 37° C. for 2 hours. After secondary staining, aggregates were washed twice in PBS for 5 minutes each and culture slides were mounted with a cover slip to be imaged.
Microscopy. Live cell aggregates suspended in AXgel were periodically imaged during the experiment using an EVOS XL Core Imaging System for transmitted light microscopy available in the Cell and Tissue Analysis Facility through QB3-Berkeley. Fixed, stained, and mounted cell aggregates were imaged with a 20× or 40× objective using a Perkin Elmer Opera Phenix automated confocal fluorescence microscope available in the High-Throughput Screening Facility through QB3-Berkeley. Laser exposure time and power was kept constant for a fluorescence channel within an imaging set.

SMILES | expression of tyrosine hydroxylase in differentiating aggregates | production of hPSC-derived neurons expressing the functional biomarker Tyrosine Hydroxylase | tyrosine hydroxylase-positive neurons (FIG. 5) (day 18, 10 nM Q525 in differentiation media free of GDNF, BDNF and TGFβ3, induction media without FGF8)
CCN(CC)S(=O)(=O)c1ccc(OC)c(N2CCN(C(=O)c3ccc(F)cc3C(F)(F)F)CC2)c1 [BT-13, N,N-diethyl-3-[4-[4-fluoro-2-(trifluoromethyl)-benzoyl]piperazin-1-yl]-4-methoxybenzenesulfonamide] | detected in neuronal cell bodies within all of the differentiating aggregates | sufficient to produce hPSC-derived neurons expressing the functional biomarker Tyrosine Hydroxylase | –
O=C1C(Nc2ccc(CO)cc2)=C(O)C(=O)c2ncccc21 [Q525] | detected in neuronal cell bodies within all of the differentiating aggregates | sufficient to produce hPSC-derived neurons expressing the functional biomarker Tyrosine Hydroxylase | tyrosine hydroxylase-positive neurons at day 18
